Some test systems named below: NCI/ADR-RES ovarian; HCT-15 colon; SNB-75 CNS; SK-MEL-28 melanoma; MDA-MB-231 breast; NCI-H226 lung; NCI-H23 lung; UO-31 renal; SK-OV-3 ovarian; ACHN renal.
Common to all, as to test: NCI anticancer screen, dose series, 48 h

GI50 and TGI data for nine molecules are collected here from PubChem BioAssay (NCI).

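96-well plates; 48 h exposure; 5 concentrations. Endpoints by linear interpolation between flanking doses. Not reached: highest tested concentration assigned. The concentration for 50% growth inhibition is given as GI50. TGI: concentration producing complete growth inhibition.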 Where only a bound is given, the exact number is not on record here.

For `CCCCCCCCN=C(NCCCCCCCC)SCc1cccc2ccccc12`, the GI50 with NCI/ADR-RES ovarian was 1.62 µM; with HCT-15 colon, 1.19 µM; in the assay on SNB-75 CNS, 1.66 µM; in the assay on SK-MEL-28 melanoma it was 1.95 µM; with MDA-MB-231 breast it was 1.14 µM; in the assay on NCI-H226 lung it was 1.52 µM. For the same molecule, the GI50 with NCI-H23 lung is 1.14 µM; in the assay on UO-31 renal, 1.27 µM. Also, the TGI with NCI/ADR-RES ovarian stood at 3.05 µM; in the assay with HCT-15 colon, 3.09 µM; with SNB-75 CNS it was 3.18 µM; in the assay on SK-MEL-28 melanoma it was 3.44 µM; with MDA-MB-231 breast, 2.55 µM; with NCI-H226 lung, 2.95 µM. Moreover, the TGI with NCI-H23 lung amounted to 2.52 µM; in the assay on UO-31 renal it was 2.86 µM.
Regarding `CN(C)c1ccc2[nH]c3c(C(N)=O)cc(=O)c(=O)c=3oc2c1`, the GI50 with NCI/ADR-RES ovarian was 1.81 µM; in the assay on SK-OV-3 ovarian, 3.54 µM; with HCT-15 colon, 0.766 µM; in the assay with SNB-75 CNS, 2.5 µM; with SK-MEL-28 melanoma, 4.2 µM; with MDA-MB-231 breast, 1.7 µM. For the same molecule, the figures for the GI50 with NCI-H226 lung, in the assay on NCI-H23 lung and in the assay with ACHN renal were 4.74 µM, 1.1 µM and 0.767 µM, respectively. Moreover, the TGI is 8.39 µM with NCI/ADR-RES ovarian; over 100 µM in the assay with SK-OV-3 ovarian; over 100 µM in the assay with HCT-15 colon; 9.19 µM with SNB-75 CNS; over 100 µM in the assay with SK-MEL-28 melanoma; 8.67 µM in the assay with MDA-MB-231 breast. The TGI was over 100 µM in the assay with NCI-H226 lung, 25.8 µM with NCI-H23 lung and 8.98 µM in the assay on ACHN renal.
On to `COc1ccc(/C=C/c2ccnc3ccccc23)cc1OC`, for which the TGI amounted to 40 µM with NCI/ADR-RES ovarian; 92.8 µM in the assay with SK-OV-3 ovarian; 30.4 µM with HCT-15 colon; 31.7 µM in the assay on SK-MEL-28 melanoma; 48.5 µM in the assay with NCI-H226 lung; 45.5 µM in the assay with NCI-H23 lung. Also, the TGI in the assay with UO-31 renal is 0.478 µM; with ACHN renal, over 100 µM.
For `O=C1C=CC(=O)c2c1nc(CBr)[nH]c2=O`, the TGI with NCI/ADR-RES ovarian, with SK-OV-3 ovarian, in the assay with HCT-15 colon, with SNB-75 CNS, in the assay on SK-MEL-28 melanoma and with MDA-MB-231 breast was over 100 µM each time. Moreover, the TGI in the assay with NCI-H23 lung, in the assay on UO-31 renal and in the assay with ACHN renal was over 100 µM throughout.
For the molecule `N#Cc1c(N)nc(N2CCOCC2)c(C#N)c1-c1c(Cl)cccc1Cl`, the GI50 is 2.34 µM in the assay on NCI/ADR-RES ovarian; 4.09 µM with SK-OV-3 ovarian; 4.04 µM in the assay with HCT-15 colon; 1.75 µM with SNB-75 CNS; 7.38 µM with SK-MEL-28 melanoma; 3.57 µM in the assay on MDA-MB-231 breast. The values for the GI50 in the assay with NCI-H226 lung, in the assay with UO-31 renal and with ACHN renal were 15.2 µM, 7.79 µM and 13.4 µM, respectively. Further, the TGI in the assay with NCI/ADR-RES ovarian came to 7.46 µM; with SK-OV-3 ovarian, 21 µM; in the assay on HCT-15 colon it was 25.8 µM; in the assay on SNB-75 CNS it was 9.66 µM; in the assay on SK-MEL-28 melanoma it was 56 µM; in the assay with MDA-MB-231 breast it was 15.4 µM. Also, the values for the TGI in the assay with NCI-H226 lung, with UO-31 renal and with ACHN renal were 73.8 µM, 44.1 µM and 44.5 µM, respectively.
For `O=C(Oc1c(Cl)cc(Cl)cc1Cl)c1ccccc1Nc1ccnc(C(F)(F)F)c1`, the GI50 with HCT-15 colon is 2.7 µM; with SK-MEL-28 melanoma, 24.1 µM; in the assay on MDA-MB-231 breast, 3.25 µM; in the assay on NCI-H226 lung it was 5.93 µM; with NCI-H23 lung it was 2.59 µM; in the assay on UO-31 renal, 41 µM. The GI50 in the assay with ACHN renal is 2.46 µM. Moreover, the TGI is 10.6 µM with HCT-15 colon; over 100 µM with SK-MEL-28 melanoma; 18.9 µM with MDA-MB-231 breast; 24.6 µM in the assay with NCI-H226 lung; 6.3 µM with NCI-H23 lung; over 100 µM with UO-31 renal. Further, the TGI in the assay with ACHN renal stood at 6.52 µM.
Take `CN(CCCCCl)P(=O)(OCc1ccc([N+](=O)[O-])o1)OCC1OC(n2cc([N+](=O)[O-])c(=O)[nH]c2=O)CC1O` (configuration not stated): the GI50 in the assay on NCI/ADR-RES ovarian is over 100 µM; in the assay on SK-OV-3 ovarian, 96.4 µM; in the assay with HCT-15 colon it was over 100 µM; in the assay on SK-MEL-28 melanoma, 45.9 µM; in the assay on MDA-MB-231 breast, over 100 µM; in the assay with NCI-H226 lung it was 42.3 µM. Besides, the GI50 in the assay on NCI-H23 lung was 75.2 µM; with UO-31 renal it was over 100 µM; with ACHN renal, 17.5 µM. The TGI in the assay with NCI/ADR-RES ovarian, with SK-OV-3 ovarian, with HCT-15 colon, in the assay with SK-MEL-28 melanoma, in the assay with MDA-MB-231 breast and with NCI-H226 lung was over 100 µM in each case. For the same molecule, the TGI in the assay on NCI-H23 lung, with UO-31 renal and in the assay with ACHN renal was over 100 µM throughout.
In the case of `CSc1ccc(C(=O)/C=C/c2ccc(Cl)cc2Cl)cc1`, the GI50 in the assay with NCI/ADR-RES ovarian is 30 µM; in the assay with HCT-15 colon it was 29.8 µM; with MDA-MB-231 breast, 27.7 µM; in the assay on NCI-H226 lung, 26 µM; in the assay with NCI-H23 lung, 21.9 µM; in the assay on UO-31 renal it was 22.4 µM. In addition, the GI50 in the assay with ACHN renal was 23.7 µM. In addition, the TGI with NCI/ADR-RES ovarian stood at 94.7 µM; with HCT-15 colon it was 97.7 µM; in the assay on MDA-MB-231 breast it was 86.9 µM; in the assay on NCI-H226 lung it was 82.9 µM; in the assay on NCI-H23 lung, 57.4 µM; in the assay with UO-31 renal it was 81.7 µM. This molecule also yielded a TGI in the assay on ACHN renal of 55.6 µM.
Turning to `O=C1C(Cl)=C(NCCCN(CCCNC2=C(Cl)C(=O)c3ccccc3C2=O)C2=C(Cl)C(=O)c3ccccc3C2=O)C(=O)c2ccccc21`, the GI50 is 4.06 µM in the assay with NCI/ADR-RES ovarian; 18.4 µM in the assay with SK-OV-3 ovarian; 1.66 µM in the assay with HCT-15 colon; 20.6 µM with SNB-75 CNS; 2.15 µM in the assay with SK-MEL-28 melanoma; 1.93 µM with MDA-MB-231 breast. Besides, the results for the GI50 with NCI-H226 lung, with NCI-H23 lung and in the assay with UO-31 renal were 17.3 µM, 1.69 µM and 1.25 µM, respectively. The TGI with NCI/ADR-RES ovarian was over 100 µM; in the assay on SK-OV-3 ovarian it was 37.9 µM; in the assay with HCT-15 colon, 3.78 µM; with SNB-75 CNS it was 39.3 µM; with SK-MEL-28 melanoma, 4.53 µM; with NCI-H226 lung it was 35.1 µM. Besides, the TGI was 5.26 µM in the assay with NCI-H23 lung and 5.93 µM in the assay with UO-31 renal.
